From US9611256B2, “Alkyne-, azide- and triazole-containing flavonoids as modulators for multidrug resistance in cancers” (The Hong Kong Polytechnic University, priority 2012, dated 2017) come the findings set out here.

Data set [1] deals with P-gp, MRP1 and BCRP transporters. Briefly: Selectivity for ABC transporters, determined from % of reversion (Tables 1 and 2). Type of data set: cell-based, human. Conditions: determined from % of reversion in Table 1 (>80% strongly, 79-50% moderately selective). An excerpt:
Generally, the triazole dimers library can be divided into mono-selective, dual-selective and multi-selective ABC transporter modulators. Table 2 summarizes the selectivity of different active triazole dimers and some monomeric azides for the ABC transporters. […] From the study, it seems that the simple monomeric azides could be a highly BCRP-selective inhibitor. […] It is possible that differently selective (mono-, dual- and multi-) inhibitors of drug transporters could be potentially useful tools for investigation of complicated drug-resistance phenotypes and eventually, for treatment of drug-resistant cancers caused by overexpression of ABC transporters.
The selectivity of active triazole compounds for various ABC transporters was determined from the Table 1. It would be considered as strongly selective if it causes >80% of reversion. It would be considered as moderately selective if it results in 79-50% of reversion. Overall, the active triazole compounds can be divided into mono-, dual- and multi-selective for P-gp, MRP1 and BCRP transporters.

The nature of the next data set: in vitro. Conditions: mouse.

As for `Cc1ccc2oc(-c3ccc(OCCCCc4cn(CCOCCOCCOc5ccc(-c6cc(=O)c7cc(C)ccc7o6)cc5)nn4)cc3)cc(=O)c2c1` [Ac5Az3, 6-Methyl-2-(4-(2-(2-(2-(4-(4-(4-(6-methyl-4-oxo-4H-chromen-2-yl)phenoxy)butyl)-1H-1,2,3-triazol-1-yl)ethoxy)ethoxy)ethoxy)phenyl)-4H-chromen-4-one], the “Selectivity for ABC transporters (P-gp, MRP1, BCRP)” value (shortened to “Selectivity … (P-gp, MRP1, BCRP)”) in data set [1] was “P-gp and MRP1-dual-selectivity”.

As usually defined, the IC50 is the concentration that gives 50% inhibition. A low value points to greater potency in that assay. In the case of `O=c1cc(-c2ccc(OCCOCCOCCn3cc(COCCOc4ccc5c(=O)cc(-c6ccccc6)oc5c4)nn3)cc2)oc2ccccc12` [Ac13Az2, 7-(2-((1-(2-(2-(2-(4-(4-Oxo-4H-chromen-2-yl)phenoxy)ethoxy)ethoxy)ethyl)-1H-1,2,3-triazol-4-yl)methoxy)ethoxy)-2-phenyl-4H-chromen-4-one], in the data set “in vitro”, the IC50 at 5 days was under 12.1 µM.

`[N-]=[N+]=NCCOCCOCCOc1ccc(-c2oc3ccccc3c(=O)c2OCc2ccccc2)cc1` [Az5, 2-(4-(2-(2-(2-Azidoethoxy)ethoxy)ethoxy)phenyl)-3-(benzyloxy)-4H-chromen-4-one]: the “Selectivity … (P-gp, MRP1, BCRP)” value in data set [1] is reported as “mono-BCRP selectivity”.

Take `O=c1cc(-c2ccc(OCCOCCOCCn3cc(CN(CCOc4ccc5c(=O)cc(-c6ccccc6)oc5c4)Cc4ccccc4)nn3)cc2)oc2ccccc12` [Ac16Az2, 7-(2-(Benzyl((1-(2-(2-(2-(4-(4-oxo-4H-chromen-2-yl)phenoxy)ethoxy)ethoxy)ethyl)-1H-1,2,3-triazol-4-yl)methyl)amino)ethoxy)-2-phenyl-4H-chromen-4-one]: in “in vitro”, the IC50 at 5 days was over 100 µM.

Turning to `O=c1cc(-c2ccccc2)oc2cc(OCCOCCOCCn3cc(COCCOc4ccc5c(=O)cc(-c6ccccc6)oc5c4)nn3)ccc12` [Ac13Az12, 7-(2-((1-(2-(2-(2-((4-Oxo-2-phenyl-4H-chromen-7-yl)oxy)ethoxy)ethoxy)ethyl)-1H-1,2,3-triazol-4-yl)methoxy)ethoxy)-2-phenyl-4H-chromen-4-one], in data set [1], the “Selectivity … (P-gp, MRP1, BCRP)” value is recorded as “mono-BCRP selectivity”. The molecule also had a half-maximal inhibitory concentration (IC50) at 5 days in the data set “in vitro” of under 12.1 µM.

As to `Cc1ccc2oc(-c3ccc(OCCCCc4cn(CCN(CCOc5ccc6c(=O)cc(-c7ccccc7)oc6c5)Cc5ccccc5)nn4)cc3)cc(=O)c2c1` [Ac5Az15, 2-(4-(4-(1-(2-(Benzyl(2-((4-oxo-2-phenyl-4H-chromen-7-yl)oxy)ethyl)amino)ethyl)-1H-1,2,3-triazol-4-yl)butoxy)phenyl)-6-methyl-4H-chromen-4-one], the “Selectivity … (P-gp, MRP1, BCRP)” value in data set [1] is “P-gp and MRP1-dual-selectivity”.

Take `O=c1cc(-c2ccccc2)oc2cc(OCCCCc3cn(CCOCCOCCOc4ccc(-c5oc6ccccc6c(=O)c5OCc5ccccc5)cc4)nn3)ccc12` [Ac12Az5, 3-(Benzyloxy)-2-(4-(2-(2-(2-(4-(4-((4-oxo-2-phenyl-4H-chromen-7-yl)oxy)butyl)-1H-1,2,3-triazol-1-yl)ethoxy)ethoxy)ethoxy)phenyl)-4H-chromen-4-one]: in data set [1], the “Selectivity … (P-gp, MRP1, BCRP)” value is “multi-selectivity towards P-gp, MRP1 and BCRP transporters”.

Turning to `Cc1ccc2oc(-c3ccc(OCCCCc4cn(CCOCCOCCOc5ccc(-c6oc7ccccc7c(=O)c6O)cc5)nn4)cc3)cc(=O)c2c1` [Ac5Az5OH, 3-Hydroxy-2-(4-(2-(2-(2-(4-(4-(4-(6-methyl-4-oxo-4H-chromen-2-yl)phenoxy)butyl)-1H-1,2,3-triazol-1-yl)ethoxy)ethoxy)ethoxy)phenyl)-4H-chromen-4-one], the 50% inhibitory concentration (IC50) at 5 days in the data set “in vitro” is under 12.1 µM.

The molecule `C#CCN(CCOc1ccc2c(=O)cc(-c3ccccc3)oc2c1)Cc1ccccc1` [Ac16, 7-(2-(Benzyl(prop-2-yn-1-yl)amino)ethoxy)-2-phenyl-4H-chromen-4-one] yielded an IC50 at 5 days in the data set “in vitro” of 58.2 µM.

`[N-]=[N+]=NCCOCCOCCOc1ccc(-c2cc(=O)c3cc(Cl)cc(Cl)c3o2)cc1` [Az6, 2-(4-(2-(2-(2-Azidoethoxy)ethoxy)ethoxy)phenyl)-6,8-dichloro-4H-chromen-4-one]: the “Selectivity … (P-gp, MRP1, BCRP)” value in data set [1] is on record as “mono-BCRP selectivity”.

As for `O=c1cc(-c2ccccc2)oc2cc(OCCOCCn3cc(COCCOc4ccc5c(=O)cc(-c6ccccc6)oc5c4)nn3)ccc12` [Ac13Az11, 7-(2-((1-(2-(2-((4-Oxo-2-phenyl-4H-chromen-7-yl)oxy)ethoxy)ethyl)-1H-1,2,3-triazol-4-yl)methoxy)ethoxy)-2-phenyl-4H-chromen-4-one], the “Selectivity … (P-gp, MRP1, BCRP)” value in data set [1] was “mono-BCRP selectivity”.

`O=c1[nH]c(-c2ccc(OCCCc3cn(CCOCCOCCOc4ccc(-c5cc(=O)c6ccccc6o5)cc4)nn3)cc2)nc2ccccc12` [Ac11Az2, 2-(4-(3-(1-(2-(2-(2-(4-(4-oxo-4H-chromen-2-yl)phenoxy)ethoxy)ethoxy)ethyl)-1H-1,2,3-triazol-4-yl)propoxy)phenyl)quinazolin-4(3H)-one] gave an IC50 at 5 days in “in vitro” of under 12.1 µM.

Take `C#CCOCCOc1ccc2c(=O)cc(-c3ccccc3)oc2c1` [Ac13, 2-Phenyl-7-(2-(prop-2-yn-1-yloxy)ethoxy)-4H-chromen-4-one]: in the data set “in vitro”, the IC50 at 5 days is 32.2 µM. This counts as double-digit micromolar.

In the case of `O=c1cc(-c2ccccc2)oc2cc(OCCOCCOCCn3cc(CN(Cc4ccccc4)Cc4cn(CCOCCOCCOc5ccc6c(=O)cc(-c7ccccc7)oc6c5)nn4)nn3)ccc12` [Ac15Az12, 7,7′-(((((((4,4′-((Benzylazanediyl)bis(methylene))bis(1H-1,2,3-triazole-4,1-diyl))bis(ethane-2,1-diyl))bis(oxy))bis(ethane-2,1-diyl))bis(oxy))bis(ethane-2,1-diyl))bis(oxy))bis(2-phenyl-4H-chromen-4-one)], the “Selectivity … (P-gp, MRP1, BCRP)” value in data set [1] is given as “mono-BCRP selectivity”.

`COCOc1cc(OCc2ccccc2)c2c(=O)cc(-c3ccc(OCCCc4cn(CCOCCOc5ccc(-c6cc(=O)c7ccccc7o6)cc5)nn4)cc3)oc2c1` [Ac4Az1, 5-(Benzyloxy)-7-(methoxymethoxy)-2-(4-(3-(1-(2-(2-(4-(4-oxo-4H-chromen-2-yl)phenoxy)ethoxy)ethyl)-1H-1,2,3-triazol-4-yl)propoxy)phenyl)-4H-chromen-4-one] returned a concentration for half-maximal inhibition (IC50) at 5 days in the data set “in vitro” of under 12.1 µM.

The molecule `Cc1ccc2oc(-c3ccc(OCCCCc4cn(CCOCCOc5ccc(-c6oc7ccccc7c(=O)c6O)cc5)nn4)cc3)cc(=O)c2c1` [Ac5Az100H, 3-Hydroxy-2-(4-(2-(2-(4-(4-(4-(6-methyl-4-oxo-4H-chromen-2-yl)phenoxy)butyl)-1H-1,2,3-triazol-1-yl)ethoxy)ethoxy)phenyl)-4H-chromen-4-one] showed an IC50 at 5 days in “in vitro” of under 12.1 µM.
